Assays:
primary human microglia = assay: Phagocytosis assay with fluorescent latex beads; assay type: cell-based; conditions: added to rSELP; SELPi 0.5 µM, antibodies 2.5 µg/ml
Procedure: Phagocytosis assay. Primary human/murine microglia were seeded in 96 well plates (1 × 10^5 cells/ml) in microglia medium, microglia medium supplemented with rSELP (1.5 µg/ml for human microglia and 3.5 µg/ml for murine microglia), microglia medium supplemented with rSELP and SELPi (0.5 µM), microglia medium supplemented with rSELP and anti-PSGL-1 neutralizing antibody (2.5 µg/ml), microglia medium 13 supplemented with rSELP and anti-CD44 neutralizing antibody (2.5 µg/ml) or microglia medium supplemented with rSELP and anti-CD24 neutralizing antibody (2.5 µg/ml) for 48 h. The medium was then replaced by fresh microglia medium containing green fluorescence latex beads for 2-6 h and washed with PBS supplemented with Hoechst staining solution for 10 min. For evaluation of murine macrophages phagocytosis abilities, macrophages were seeded in 96 well plates (5 × 10^5 cells/ml), treated with macrophages medium, macrophages medium supplemented with rSELP (3.5 µg/ml), macrophages medium supplemented with rSELP and SELPi (0.5 µM), macrophages medium supplemented with rSELP and anti-PSGL-1 neutralizing antibody (2.5 µg/ml), macrophages medium supplemented with rSELP and anti-CD44 neutralizing antibody (2.5 µg/ml) or macrophages medium supplemented with rSELP and anti-CD24 neutralizing antibody (2.5 µg/ml) for 48 h. […]

PD-GB4 tumors = assay: Local (intraventricular cannula) SELPi treatment in PD-GB PDX model; assay type: in vivo, SCID mice
Procedure: Tumor volume was evaluated by MRI. […] Twelve days post cell inoculation, 3 mice per group were euthanized and brain were resected and further processed for histology analysis. […] Brain cannulas (NBT) were implanted intraventricularly in the co-lateral hemisphere and the mice were treated stereotactically via the cannulas (1 µl at 0.2 µl/min flow rate) with PBS, 2 mg/kg SELPi dissolved in DMSO or vehicle (DMSO). Three weeks post cell-inoculation, the mice were euthanized, the cannulas were removed, and tumor volume was evaluated by MRI (MR solutions). Brains were resected for immunostaining.
MRI imaging. Tumor bearing mice were imaged at the Sackler Cellular & Molecular Imaging Center (SCMIC), Tel Aviv University. Mice were anesthetized by ketamine (150 mg/kg) and xylazine (12 mg/kg) injected IP. T1 with contrast agent (Magnetol, Gd-DTPA, Soreq M.R.C. Israel Radiopharmaceuticals) and T2 weighted images were taken by 4.7T MRI - MRS 4000™ (MR solutions).

L-Selectin = molecular target: T1, L-Selectin (Homo sapiens, UniProt P14151); conditions: cited from earlier work
T1 sequence (P14151 39-372): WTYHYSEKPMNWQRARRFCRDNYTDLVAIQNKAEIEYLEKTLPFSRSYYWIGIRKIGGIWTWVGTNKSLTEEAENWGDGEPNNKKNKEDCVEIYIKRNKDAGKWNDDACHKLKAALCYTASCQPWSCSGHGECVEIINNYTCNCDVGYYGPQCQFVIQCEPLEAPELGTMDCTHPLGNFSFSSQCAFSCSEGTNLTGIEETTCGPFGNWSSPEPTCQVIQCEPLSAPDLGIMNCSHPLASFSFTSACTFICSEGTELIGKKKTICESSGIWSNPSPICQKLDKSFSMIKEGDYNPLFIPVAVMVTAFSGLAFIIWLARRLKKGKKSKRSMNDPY

U251 and PD-GB4 GB cells = assay: In vitro cytotoxicity of SELPi (annexin-FITC/PI apoptosis-necrosis staining); assay type: cell-based, human
Procedure: Flow cytometry. For flow cytometry assays, cells were harvested using a cell scraper, and were then washed with PBS followed by additional washes with PBS supplemented with 1% BSA and 5 mM EDTA (FACS buffer). Tumor spheroids were recovered from Matrigel using Cell Recovery Solution (Corning) and washed with FACS buffer. To validate the purity of the microglia preparations, CD11b isolated cells or human microglia were incubated with TMEM119 and P2Y12-labeled antibodies for 1 h. For human TMEM119, primary antibody was unlabeled and cells were washed and incubated with secondary, Alexa 488 conjugated antibody. To assess P-Selectin and PSGL-1 expression, GB cells and microglia were seeded alone, co-cultured in a 2D petri dish, or grown as spheroids seeded in Matrigel. Cells were treated with control medium or CM for 48 h. They were then incubated with mouse anti-human P-Selectin antibody for 1 h on ice, and then were washed, and incubated with Alexa-488 labeled anti-mouse IgG binding protein for 1 h on ice. Alternatively, cells were incubated with rat anti-human PSGL antibody, and then were washed, and incubated with goat anti-rat, Alexa-488 labeled antibody for 1 h on ice. […] Fluorescence intensity was assessed using either an Attune flow cytometer (Life Technologies) or a Gallios™ flow cytometer (Beckman Coulter, USA) and the results were analyzed by Kaluza software (Beckman Coulter, USA).

## COc1ccc(C2CC(c3c(O)cc(C)oc3=O)=NCCS2)c(OC)c1 (stereo not shown) [SELPi, 3-[7-(2,4-Dimethoxyphenyl)-2,3,6,7-tetrahydro-1,4-thiazepin-5-yl]-4-hydroxy-6-methyl-2H-pyran-2-one]
Primary human microglia
  restoration of phagocytic function: restored the phagocytic function
PD-GB4 tumors; PD-GB4, 2 mg/kg SELPi intraventricular via cannula, 21 days post injection
  reduction in tumor volume (MRI): 67%
PD-GB4 tumors; PD-GB4, local SELPi treatment, day 21
  tumor growth (tumor volume, MRI): delayed growth
PD-GB4 tumors; PD-GB4 tumors
  CD31 density: reduction
  Iba1 density: reduction
  invasion of GB cells: reduced
  proliferation of GB cells: reduced
L-Selectin
  inhibiting effect on L-Selectin: no inhibiting effects
U251 and PD-GB4 GB cells; 0.5 µM SELPi (working concentration)
  toxicity: no toxicity was observed
U251 and PD-GB4 GB cells; 5 and 10 µM SELPi, 72 h
  percentage of apoptotic cells: slight increase in the percentage of apoptotic cells

Reference: patent US20230303712A1, “METHODS OF TREATING GLIOBLASTOMA” (Ramot at Tel-Aviv University Ltd., priority 2020, published 2023)
